One assay concerns STAT5. In words: STAT5 phosphorylation western blot assay. The class given is cell-based, human. The following applies: 10 microM, HEL or K562 cells (table does not say which). The procedure:
(§1) The Human Erythroleukemia cell line HEL and the human Chronic Myeloid Leukemia cell line K562 were cultured in RPM I 1640 medium containing 10% fetal bovine serum (FBS) and 50 U/ml penicillin/50 U/ml streptomycin at 37° C. in a 5% CO2 humidified atmosphere to a density of 300.000 viable cells/mL in presence of WP1066 (positive control of phosphorylation inhibition) (Verstovsek et al., 2008) or CM-363 at concentrations of 1, 5 and 10 μM. Cell culture reagents were all obtained from BioWhittaker® (Lonza, Verniers, Belgium). Cell growth and viability was determined by propidium iodide (fluorescent dye) exclusion method using the Accuchip 4× Counting Kit and the ADAM automatic cell counter (Digital-Bio, NanoEntek, Ic., Washington St, Mass., USA).As a control of unspecific phosphorylation, some cells in each experiment were exposed to vehicle (negative control of phosphorylation inhibition) (0.1% DMSO).
(§2) For total protein extraction, cells were scraped with RIPA 1× lysis buffer (25 mM Tris-HCl pH 7.6, 150 mM NaCl, 1% NP-40, 1% sodium deoxycholate, 0.1% SDS, no. 89900, Thermo Scientific, Rockford, Ill., USA) supplemented with 1× protease and 1× phosphatase inhibitor cocktails (100× Halt™ Protease Inhibitor Cocktail, no. 87786 and 100× Halt Phosphatase Inhibitor Cocktail, no. 78420, both from Thermo Scientific, Rockford, Ill., USA). An aliquot of each extract was preserved for protein quantification by bicinchoninic acid assay (Pierce® BCA Protein Assay Kit, no. 23225, Thermo Scientific, Rockford, Ill., USA).
(§3) Proteins were solubilized in sample buffer containing 0.0625 M Tris-HCl, pH 6.8, 2.3% (wt/vol) SDS, 10% (vol/vol) glycerol, 5% (vol/vol) f3-mercaptoethanol, and 0.001% (wt/vol) bromophenol blue and boiled at 95° C. for 5 min. Equal amounts (50 μg) of each sample were electrophoresed on 8-10% sodium dodecyl sulfate-polyacrylamide gel electrophoresis (SDS-PAGE) and transferred to nitrocellulose membranes (iBlot® Gel Transfer Stacks, Nitrocellulose, no. IB4010-02, Invitrogen, Barcelona, Spain) as described previously (Fernandez, L, et al., Endocrinology, 13, 1815-1824, 1998; B. Guerra et al., J. Neurochem, 91, 99-109, 2004; B. Guerra et al., J. Appl. Physiol., 102, 1786-1792, 2007; B. Guerra et al., J. Appl. Physiol., 111, 715-725, 2011). The nitrocellulose membranes were then removed from the iBlot® Dry GelTransfer Device (no. IB1001EU, Invitrogen, Barcelona, Spain) and placed in a Ponceau S staining solution (0.5% Ponceau S and 1% glacial acetic acid in water) to verify equal loading of protein in the control and treated samples. After the membranes were stained for 5 min, they were rinsed for 2 min and examined. Equal loading of protein was verified, and the membranes were rinsed for an additional 10 min and immunoscreened. Membranes were blocked with 5% blotting grade blocker nonfat dry milk in Tris Buffered Saline with 0.05% Tween 20 (TBST; blotto-blocking buffer) for at least […]) at room temperature. They were washed thrice in TBS with 0.1% Tween 20 (TBST-0.1). Next, the membranes were incubated over night at 4° C. with the appropriate anti-phospho-antibodies (described below) all diluted (1:1000) in 1% bovine serum albumin (BSA)-1% blotto in TBST (BSA-blotto blocking buffer). […] Membranes were stripped of bound antibodies by incubation in stripping buffer (Restore™ Western Blot Stripping Buffer, no. 21059, Thermo Scientific, Rockford, Ill., USA) at room temperature for 30 min with agitation. Membranes were washed for 3×10 min in TBST-0.1, blocked with blotto-blocking buffer for at least 1 h and re-probed with the corresponding anti-total kinase antibodies (described below) all diluted (1:1000) in blotto-blocking buffer. […]

In another assay the test system is JAK2. Put plainly: JAK2 phosphorylation western blot assay. The assay is classed as cell-based, human. The following applies: 10 microM, HEL or K562 cells (table does not say which). The procedure: as §1, §2, §3
Assay [1] relates to STAT5 transcription (pSPI-GLE1-luc) in HEK-GHR cells. In words: HEK-GHR STAT5 transcription assay (luciferase reporter, rhGH stimulated). The class given is cell-based, human. The following applies: compound 45 minutes before 50 nM rhGH, six hours, read-out: Activity (IC50, reduction of luciferase activity). An excerpt:
Plasmids: The full-length GHR was subcloned into pcDNA1/ampicillin (Invitrogen) as described previously (Ross R J, Esposito N, Shen X Y, et al., Mol Endocrinol 1997, 11:265-73). The pSPI-GLE1 (serine protease inhibitor 2.1 GAS-like element 1)-luc reporter construct was generated by subcloning the Stat5-binding element from serine protease inhibitor gene together with a minimal thymidine kinase promoter into the pGL2 plasmid (Promega), which contains the firefly luciferase cDNA (Wood T J, Sliva D, Lobie P E, et al. J Biol Chem 1995, 270:9448-53).
Cell culture: HEK-GHR cell line was maintained in Dulbecco's Modified Eagle Medium (DMEM)/F12 supplemented with 10% fetal bovine serum (FBS) and 50 U/ml penicillin/50 U/ml streptomycin. The cells were maintained in a humidified incubator with 5% CO2 at 37° C. Cell culture reagents were obtained from PAA laboratories. The HEK-GHR cell line is a stable clone generated and kindly donated by Prof. Richard Ross (Clinical Sciences, Northern General Hospital, Sheffield, UK). Briefly, HEK-GHR cell line was generated in HEK 293 cells (human kidney embryonal cell line) by transfection with the calcium phosphate procedure of the GHR plasmid with pcDNA3/Neo (Invitrogen). Selection was made using G418 (400 ug/ml, Sigma) (Maamra M, Finidori J, Von Laue S, et al., J Biol Chem 1999, 274(21):14791-8).
Luciferase reporter assay: Transcription assays were performed in HEK-GHR. The HEK-GHR cells were co-transfected with Stat5 luciferase (pSPI-GLE1-luc) reporter vector together with a plasmid constitutively expressing beta-galactosidase by using Metafectene Pro as described by the manufacturer (Biontex Laboratories GmbH, Munich, Germany). Following transfection, HEK-GHR cells were serum-starved for 20 h. Cells were then treated with vehicle (0.1% DMSO) or the indicated compound for 45 minutes prior to the addition of 50 nM recombinant human Growth Hormone (rhGH) (Norditropin, Novo Nordisk) to the medium. Six hours following rhGH addition, cells were harvested with Passive Lysis Buffer (Promega), and levels of luciferase were measured using Luciferase Assay System as described by the manufacturer (Promega). The Galacto-Light Plus System (Applied Biosystems) was used to measure beta-galactosidase activity.
Statistical analysis. The concentration of drug that provokes 50% reduction of luciferase activity (IC50) was determined by using non-linear regression analysis and data were fitted to a log concentration vs normalized response curve in GraphPad software v5 (San Diego, Calif.).

The subject of a further assay is HEL cells. Put plainly: HEL-based MTT cell viability assay. Also on record: species or system human. Conditions: 48 h, read-out: Activity (IC50, reduction of cell viability). The procedure:
Cell viability was assayed by measuring the mitochondrial reduction of the tetrazolium salt 3-(4,5-methyltiazol-2yl)-2,5diphenyl-tetrazolium bromide] (MTT) (Applichen; A2231,0010) (Mosmann T. J Immunol Methods. 1983 16; 65(1-2):55-63; Chuan Y-C et al 2010. Oncogene. 29 (10), 1531-1542. Cells were seeded in 96-well plates in medium supplemented with 10% FBS (Lonza Cat. No: 14-502F), 2 mM L-Glut (Lonza Cat. No: BE17-605E) and 100 U/ml PEST (Lonza Cat. No: DE17-605E) at a cell density of 5000-20000 cells/well. Cells were seeded at a density according to their exponential growth phase. Vehicle (0.05% DMSO) or drug were added to culture medium at the indicated concentrations (10 to 0.01 microM) during 48 h. Then, MTT (0.3 mg/ml) was added to cells following by incubation for 2-4 h at 37° C. in the dark. The medium was then discarded and the formazan precipitate was solubilized by addition of 20% SDS (Sigma; L-5750) in 0.02N HCl (Panreac; 131020.1611) for 12-16 h. The optical density was measured at 595 nm with the iMark Microplate Reader (BioRad, USA). Data was expressed as percent growth above the level in controls and the results in figures were plotted as means±SEM of each test point from 3 replicates.
Statistical analysis. The concentration of drug that provokes 50% reduction of cell viability (IC50) was determined by using non-linear regression analysis and data were fitted to a log concentration vs normalized response curve in GraphPad software v5 (San Diego, Calif.).

Like-named read-outs stand apart in the source and are kept apart here.

As to `CC1(C)CC(=O)C2=C(C1)NC1=C(C(=O)c3cn[nH]c3C1=O)C2c1ccccc1` (centres unmarked) [Compound 5], the “Activity (inhibition of STAT5 phosphorylation)” value in the assay with STAT5 is “+ (+represents an inhibition at 10 microM > 50%)”. Further, the “Activity (inhibition of JAK2 phosphorylation)” value with JAK2 is on record as “+ (+represents an inhibition at 10 microM > 30%)”. In addition, the IC50 was below 5000 nM in assay [1] and below 3000 nM in the assay with HEL cells.

Take `O=C1CCCC2=C1C(c1cccs1)C1=C(N2)C(=O)c2ccccc2C1=O` (centres unmarked) [Compound 6, 12-(thiophen-2-yl)-3,4-dihydrobenzo[b]acridine-1,6,11(2H,5H,12H)-trione]: the “Activity (inhibition of STAT5 phosphorylation)” value with STAT5 is on record as “++ (++represents an inhibition at 10 microM > 50%)”. In the assay on JAK2, the “Activity (inhibition of JAK2 phosphorylation)” value was “+ (+represents an inhibition at 10 microM > 30%)”. For the same molecule, the IC50 in assay [1] (Homo sapiens) is below 5000 nM; in the assay with HEL cells (Homo sapiens) it was below 3000 nM.

Regarding `CC1(C)CC(=O)C2=C(C1)OC1=C(C(=O)c3ccccc3C1=O)C2c1cccs1` (centres unmarked) [Compound 7, 3,3-dimethyl-12-(thiophen-2-yl)-3,4-dihydro-1H-benzo[b]xanthene-1,6,11(2H,12H)-trione], the “Activity (inhibition of STAT5 phosphorylation)” value with STAT5 is given as “+++ (+++represents an inhibition at 10 microM > 75%)”. In addition, the “Activity (inhibition of JAK2 phosphorylation)” value in the assay with JAK2 is reported as “+++ (+++represents an inhibition at 10 microM > 75%)”. Further, the 50% inhibitory concentration (IC50) was below 1000 nM in assay [1] (Homo sapiens) and below 10000 nM in the assay with HEL cells (Homo sapiens).

For `CC1(C)CC(=O)C2=C(C1)NC1=C(C(=O)c3ncncc3C1=O)C2c1ccccc1` (centres unmarked) [Compound 8], the “Activity (inhibition of STAT5 phosphorylation)” value with STAT5 was “+ (+represents an inhibition at 10 microM > 50%)”. In the assay on JAK2, the “Activity (inhibition of JAK2 phosphorylation)” value is reported as “+++ (+++represents an inhibition at 10 microM > 75%)”. Also, the results for the IC50 (in assay [1]; in the assay with HEL cells) were below 5000 nM and below 3000 nM, respectively.

Consider `O=C1CCCC2=C1C(c1ccc(Br)cc1)C1=C(O2)C(=O)c2ccccc2C1=O` (centres unmarked) [Compound 10], for which the “Activity (inhibition of STAT5 phosphorylation)” value in the assay on STAT5 is given as “+ (+represents an inhibition at 10 microM > 50%)”. In addition, the “Activity (inhibition of JAK2 phosphorylation)” value in the assay with JAK2 is recorded as “++ (++represents an inhibition at 10 microM > 50%)”. Besides, the values for the IC50 (in assay [1]; in the assay on HEL cells) were below 1000 nM and below 3000 nM, respectively.

Regarding `O=C1CCCC2=C1C(c1ccccn1)C1=C(O2)C(=O)c2ccccc2C1=O` (centres unmarked) [Compound 11, 12-(pyridin-2-yl)-3,4-dihydro-1H-benzo[b]xanthene-1,6,11(2H,12H)-trione], the “Activity (inhibition of STAT5 phosphorylation)” value in the assay with STAT5 is given as “+ (+represents an inhibition at 10 microM > 50%)”. The IC50 was below 1000 nM in assay [1] (Homo sapiens) and below 10000 nM with HEL cells (Homo sapiens).

With `CC1(C)CC(=O)C2=C(C1)OC1=C(C(=O)c3ccccc3C1=O)C2c1ccccn1` (centres unmarked) [Compound 12], the “Activity (inhibition of STAT5 phosphorylation)” value with STAT5 is given as “++ (++represents an inhibition at 10 microM > 50%)”. The “Activity (inhibition of JAK2 phosphorylation)” value in the assay with JAK2 is listed as “++ (++represents an inhibition at 10 microM > 50%)”. The results for the IC50 (in assay [1]; in the assay on HEL cells) were below 1000 nM and below 3000 nM, respectively.

On to `COc1ccc(C2C3=C(CCCC3=O)OC3=C2C(=O)c2ccccc2C3=O)cc1OC` (centres unmarked) [Compound 15], for which the “Activity (inhibition of STAT5 phosphorylation)” value in the assay on STAT5 is given as “++ (++represents an inhibition at 10 microM > 50%)”. Besides, the “Activity (inhibition of JAK2 phosphorylation)” value in the assay with JAK2 is on record as “++ (++represents an inhibition at 10 microM > 50%)”. Also, the IC50 in assay [1] is below 10000 nM; with HEL cells, below 1000 nM.

As for `O=C1CCCC2=C1C(c1cccnc1)C1=C(N2)C(=O)c2ccccc2C1=O` (centres unmarked) [Compound 17], the “Activity (inhibition of STAT5 phosphorylation)” value in the assay on STAT5 was “+ (+represents an inhibition at 10 microM > 50%)”. The “Activity (inhibition of JAK2 phosphorylation)” value in the assay on JAK2 is recorded as “+++ (+++represents an inhibition at 10 microM > 75%)”. For the same molecule, the 50% inhibitory concentration (IC50) is below 5000 nM in assay [1] and below 3000 nM in the assay with HEL cells.

On to `CC1(C)CC(=O)C2=C(C1)NC1=C(C(=O)c3ccccc3C1=O)C2c1cnc(Cl)nc1` (centres unmarked) [Compound 19], for which the “Activity (inhibition of JAK2 phosphorylation)” value in the assay with JAK2 is given as “++ (++represents an inhibition at 10 microM > 50%)”. The concentration for half-maximal inhibition (IC50) in assay [1] is below 5000 nM; in the assay with HEL cells, below 3000 nM.

The record behind these values is patent US20150175585A1, “FUSED QUINONIC COMPOUNDS” (CENTRO ATLANTICO DEL MEDICAMENTO S.A (CEAMED, S.A.), priority 2012, published 2015).
